Measured values taken from US4172130A, “α-AMINOACYL CONTAINING NEW PEPTIDES WITH GASTRIN EFFECTS AND A PROCESS FOR THE PREPARATION THEREOF” (Richter Gedeon Vegyeszeti Gyar RT, priority 1976, dated 1979).
Peptide text beside a SMILES is read from it. * marks the point of attachment. X2 = CC(C)(C)OC(=O)NOCC(=O)*

Assays:
gastric acid secretion [1] = experiment: Gastric acid secretion increasing effect, methods of Ghosh and Schild and Lai, modified by Pissidis and Clark; type: in vivo; details: for Activity, % (gastric acid secretion increasing effect): in comparison with 0.2 μ/100 g i.v. dosage of pentagastrin = 100%
Experimental: The biological activities of the new compounds according to the invention were tested by the methods of Ghosh and Schild (Br. J. Pharmac. Chemoth. 13, 54 (1958) and Lai (Gut. 5, 327 (1964), modified by Pissidis and Clark (Gut. 8, 196 (1967)). The pharmacological tests have shown that the gastric acid secretion provoked by the new compounds is occasionally higher by 20 to 80% than that provoked by the same dosage of pentagastrin. It is particularly remarkable that the new compounds, in contrast with pentagastrin, are resorbed also from the small intenstine, and, when administered to the small intenstine in a dosage of 20 μg/100 g body weight, exert effects similar to that exerted by a 0.2 μg/100 g i.v. dosage of pentagastrin. […] It is also remarkable that some of the new compounds increase the gastric acid secretion after resorption from the rectum.

gastric acid secretion [2] = details: in vivo; cited from earlier work

CSCC[C@H](NC(=O)[C@H](Cc1c[nH]c2ccccc12)NC(=O)CCONC(=O)OC(C)(C)C)C(=O)N[C@@H](CC(=O)O)C(=O)N[C@@H](Cc1ccccc1)C(=O)NOCC(=O)O [BOC-β-OAla Met OGly-OH, 2-(3-(tert.-Butoxycarbonyl-aminooxy)-propionyl-L-tryptophyl-L-methionyl-L-aspartyl-L-phenylalanyl-aminooxy)-acetic acid]
Activity, % (gastric acid secretion increasing effect) (gastric acid secretion [1]; 0.2 μg i.v.): 32%

H--Trp--Met--Asp--Phe--NH2: carboxy-terminal tetrapeptide-amide, the biologically active center of gastrin
gastric acid secretion stimulating effect compared with the total hormone (gastrin) (gastric acid secretion [2]): lower by about one order of magnitude

CSCC[C@H](NC(=O)[C@H](Cc1c[nH]c2ccccc12)NC(=O)CONC(=O)OC(C)(C)C)C(=O)N[C@@H](CC(=O)O)C(=O)N[C@@H](Cc1ccccc1)C(=O)NOCC(=O)O [BOC-O-Gly Met OGly-OH, 2-(2-(tert.-Butoxycarbonyl-aminooxy)-acetyl-L-tryptophyl-L-methionyl-L-aspartyl-L-phenylalanyl-aminooxy)-acetic acid]
Activity, % (gastric acid secretion increasing effect) (gastric acid secretion [1]; 0.2 μg i.v.): 25%
Activity, % (gastric acid secretion increasing effect) (gastric acid secretion [1]; 20 μg rectal): 22%

CC(C)C[C@H](NC(=O)[C@H](Cc1c[nH]c2ccccc12)NC(=O)CONC(=O)OC(C)(C)C)C(=O)N[C@@H](CC(=O)O)C(=O)N[C@@H](Cc1ccccc1)C(N)=O [BOC-OGly Leu H, 2-(tert.-Butoxycarbonyl-aminooxy)-acetyl-L-tryptophyl-L-leucyl-L-aspartyl-L-phenylalanine-amide] (X2-WLDF-NH2)
Activity, % (gastric acid secretion increasing effect) (gastric acid secretion [1]; 0.2 μg i.v.): 124%
Activity, % (gastric acid secretion increasing effect) (gastric acid secretion [1]; 2.0 μg i.v.): 272%
Activity, % (gastric acid secretion increasing effect) (gastric acid secretion [1]; 20 μg intestinal): 6%
Activity, % (gastric acid secretion increasing effect) (gastric acid secretion [1]; 20 μg rectal): 68%

CSCC[C@H](NC(=O)[C@H](Cc1c[nH]c2ccccc12)NC(=O)CCNC(=O)OC(C)(C)C)C(=O)N[C@@H](CC(=O)O)C(=O)N[C@@H](Cc1ccccc1)C(N)=O [pentagastrin, BOC--β--Ala-- Trp--Met--Asp--Phe--NH2, reference compound]
Activity, % (gastric acid secretion increasing effect) (gastric acid secretion [1]; 0.2 μg i.v.): 100%
gastric acid secretion when administered enterally (gastric acid secretion [1]; enteral, even in higher dosages): does not increase the gastric acid secretion
activity among known analogs and derivatives of the tetrapeptide-amide / compared with pentagastrin (gastric acid secretion [2]): the most active derivative
